ChEMBL document CHEMBL3243990, “Hydantoins as antitumor agents” (1977)
Activity calls are given as the source filed them. The rule behind the calls is not given here.

Tests used:
L1210 = assay: Antitumor activity against mouse L1210 cells allografted in mouse relative to control; type: functional, cell-based
P388 = assay: Antitumor activity against mouse P388 cells allografted in mouse relative to control; type: functional

Structure (SMILES) | Activity (L1210) | Activity (P388) | T/C (P388)
CC1(c2ccc(Cl)s2)NC(=O)NC1=O (centres undefined) | inactive |  | 
CN1C(=O)NC(c2ccc(Cl)cc2)(c2ccc(Cl)cc2)C1=O | inactive | inactive | 
O=C1NC(=O)C(c2ccc(C(F)(F)F)cc2)(c2ccc(C(F)(F)F)cc2)N1 | inactive | inactive | 
CC1(c2cccs2)C(=O)N(Cl)C(=O)N1Cl (centres undefined) | inactive |  | 
CC1(c2cccs2)NC(=O)N(Cl)C1=O (centres undefined) | inactive |  | 
CC(=O)N1C(=O)NC(=O)C1(c1ccc(Cl)cc1)c1ccc(Cl)cc1 | inactive | inactive | 
CC1(c2cccs2)NC(=O)N(C(=O)CCl)C1=O (centres undefined) | inactive |  | 
CC(=O)N1C(=O)NC(=O)C1(C)c1cccs1 (centres undefined) | inactive |  | 
O=C(CCl)N1C(=O)NC(c2ccc(Cl)cc2)(c2ccc(Cl)cc2)C1=O | inactive | inactive | 
CC1(c2ccco2)NC(=O)N(C(=O)CCl)C1=O (centres undefined) | inactive |  | 
CC(=O)N1C(=O)NC(=O)C1(C)c1ccco1 (centres undefined) | inactive |  | 
O=C1NC(=O)C(c2cccs2)(c2cccs2)N1 | inactive |  | 
CC(=O)N1C(=O)N(Cl)C(=O)C1(c1ccc(Cl)cc1)c1ccc(Cl)cc1 | inactive | inactive | 
O=C1NC(=O)C2(CSSC2)N1 | inactive |  | 
CC(=O)N1C(=O)NC(=O)C1(C)c1ccc(Cl)s1 (centres undefined) | inactive |  | 
CC1(c2ccco2)NC(=O)NC1=O (centres undefined) | inactive |  | 
CC1(c2cccs2)NC(=O)NC1=O (centres undefined) | inactive |  | 
CC(=O)N1C(=O)NC(c2ccc(Cl)cc2)(c2ccc(Cl)cc2)C1=O | inactive | inactive | 
CC1(c2ccco2)NC(=O)N(Cl)C1=O (centres undefined) | inactive |  | 
O=C1NC(=O)C(c2ccc(Cl)cc2)(c2ccc(Cl)cc2)N1 | inactive |  | 
O=C1NC(c2cccs2)(c2cccs2)C(=O)N1Cl | inactive |  | 
CC(=O)N1C(=O)N(Cl)C(=O)C1(C)c1cccs1 (centres undefined) | inactive |  | 
O=C1N(Cl)C(=O)C(c2ccc(C(F)(F)F)cc2)(c2ccc(C(F)(F)F)cc2)N1Cl | inactive | inactive | 
O=C1N(Cl)C(=O)C(c2ccc(Cl)cc2)(c2ccc(Cl)cc2)N1Cl | inactive |  | 190%
CN1C(=O)NC(C)(c2cccs2)C1=O (centres undefined) | inactive |  | 
CC1(c2ccc(Cl)s2)C(=O)N(Cl)C(=O)N1Cl (centres undefined) | inactive |  | 
